Results reported in PMC7129073 (Clinical Microbiology and Infection, 2015).
Converted amounts (≈) assume the structure as drawn.

Legend:
[1] = test system: P. aeruginosa; test: Disk diffusion, urine isolates of BPH patients
[2] = test system: Enterobacter spp; test: E-test susceptibility; format: cell-based
[3] = test system: biofilms of S. aureus (SA204 and SA195) and S. epidermidis (ATCC35983 and ATCC35984); test: Antibiotic lock, in vitro biofilm on polyurethane film, viable counts; format: cell-based, Staphylococcus species; conditions: any of the time intervals examined
[4] = test system: K. oxytoca; test: E-test susceptibility; format: cell-based, Klebsiella oxytoca
[5] = test system: Shigella spp.; test: Disk diffusion, stool isolates Tehran; format: cell-based; conditions: 96 isolates
[6] = test system: Salmonella serotype Typhimurium; test: Disk diffusion, food isolates Spain; format: cell-based; conditions: n = 53
[7] = test system: Salmonella serotype Enteritidis; test: Disk diffusion, food isolates Spain; format: cell-based; conditions: n = 96
[8] = test system: K. pneumoniae; test: MIC; format: cell-based, Klebsiella pneumoniae; conditions: BSAC
[9] = test system: S. aureus SCVs; test: Resistance of small colony variants from cystic fibrosis patients; format: cell-based, Staphylococcus aureus; conditions: CF patients, Frankfurt 2004
[10] = test system: Escherichia coli; test: EARSS Ireland, invasive isolates; format: cell-based; conditions: Jan'01–Jun'04, 2432 isolates
[11] = test system: Acinetobacter; test: Disk diffusion; format: cell-based; conditions: 37 isolates selected as resistant to beta-lactams
[12] = test system: Salmonella, other 49 serotypes; test: Disk diffusion, food isolates Spain; format: cell-based; conditions: n = 115
[13] = test system: E. coli; test: E-test susceptibility; format: cell-based, Escherichia coli
[14] = test system: Haemophilus influenzae; test: Susceptibility testing; format: cell-based; conditions: conjunctival isolates 2000–2004
[15] = test system: Staphylococcus coagulase negative (CNS); test: Susceptibility testing; format: cell-based; conditions: conjunctival isolates 2000–2004
[16] = test system: viridans group streptococci (VGS); test: MIC; format: cell-based
[17] = test system: Escherichia coli (ECO); test: Broth microdilution; format: cell-based; conditions: 2001
[18] = test system: Staphylococcus aureus; test: Susceptibility testing; format: cell-based; conditions: conjunctival isolates 2000–2004
[19] = test system: nontyphoidal Salmonella; test: Agar dilution, isolates from chickens 1998–2004; format: cell-based, Salmonella spp.
[20] = test system: enterococci; test: Disk diffusion, urine isolates of BPH patients; conditions: strains isolated post-operatively
[21] = test system: glycopeptide intermediate Staphylococcus species (GISS); test: VITEK II, screening plate and E test, blood isolates; format: cell-based, coagulase-negative Staphylococci; conditions: 73 GISS strains
[22] = test system: Staphylococcus aureus; test: EARSS Ireland, invasive isolates; format: cell-based
[23] = test system: E. coli; test: Disk diffusion, urine isolates of BPH patients; conditions: strains isolated after operative intervention
[24] = test system: Streptococcus pneumoniae; test: Susceptibility testing; format: cell-based; conditions: 99 isolates tested
[25] = test system: Streptococcus pyogenes (SPY); test: MIC; format: cell-based; conditions: 2522 isolates
[26] = test system: Haemophilus influenzae (HI); test: MIC; format: cell-based; conditions: 7489 isolates
[27] = test system: Streptococcus pneumoniae (SPN); test: MIC; format: cell-based; conditions: 8378 isolates
[28] = test system: Moraxella catarrhalis (MC); test: MIC; format: cell-based; conditions: 2497 isolates
[29] = test system: S. pyogenes; test: PROTEKT Italy, NCCLS microdilution; format: cell-based, Streptococcus pyogenes; conditions: year 1: 2002
[30] = test system: S. pneumoniae; test: PROTEKT Italy, NCCLS microdilution; format: cell-based, Streptococcus pneumoniae
[31] = test system: Total pathogens in community acquired pneumonia; test: Sensitivity of CAP pathogens with/without antibiotic pretreatment; format: cell-based
[32] = test system: S. pneumoniae (SPN); test: SENTRY Brazil, NCCLS broth microdilution; format: cell-based, Streptococcus pneumoniae
[33] = test system: Moraxella spp.; test: Disk diffusion; format: cell-based; conditions: 35 isolates
[34] = test system: Streptococcus pneumoniae; test: BSAC agar dilution, lower respiratory isolates UK and Ireland; format: cell-based
[35] = test system: H.influenzae; test: Broth microdilution; format: cell-based, Haemophilus influenzae; conditions: Haemophilus influenzae
[36] = test system: H. influenzae; test: Disk diffusion, sputum isolates Athens 2001–2004; format: cell-based, Haemophilus influenzae
[37] = test system: E. coli; test: Sensitivity of CAP pathogens with/without antibiotic pretreatment; format: cell-based, Escherichia coli
[38] = test system: C. difficile; test: E-test, isolates from a department of surgery; format: cell-based, Clostridium difficile; conditions: Clostridioides difficile, read-out: MIC of high level resistant strains
[39] = test system: S. pneumoniae (Sp); test: Broth microdilution, point prevalence study Spain; format: cell-based, Streptococcus pneumoniae; conditions: 360 isolates, February 2004; penicillin I+R
[40] = test system: pathogens in community acquired pneumonia of different severity; test: Sensitivity of CAP pathogens by Fine severity group; format: cell-based
[41] = test system: ERSP; test: Broth microdilution; format: cell-based, Streptococcus pneumoniae
[42] = test system: Other Enterobacteriacae; test: Sensitivity of CAP pathogens with/without antibiotic pretreatment; format: cell-based, Enterobacteriaceae
[43] = test system: H. influenzae; test: Disk diffusion; format: cell-based, Haemophilus influenzae; conditions: 237 isolates
[44] = test system: PRSP; test: Broth microdilution; format: cell-based, Streptococcus pneumoniae
[45] = test system: S. pyogenes; test: Broth microdilution; format: cell-based, Streptococcus pyogenes; conditions: 212 isolates
[46] = test system: ‘wild type’ Staphylococcus epidermidis skin isolates; test: NCCLS disk diffusion; format: cell-based; conditions: 52 isolates
[47] = test system: Other Haemophilus sp.; test: Sensitivity of CAP pathogens with/without antibiotic pretreatment; format: cell-based
[48] = test system: Other non-fermenting bacteria; test: as above; format: cell-based
[49] = test system: S. -pneumoniae; test: as above; format: cell-based, Streptococcus pneumoniae
[50] = test system: Staph. coaq (−); test: as above; format: cell-based, coagulase-negative Staphylococcus
[51] = test system: S. pneumoniae; test: Broth microdilution; format: cell-based, Streptococcus pneumoniae
[52] = test system: Kl. pneumoniae; test: Sensitivity of CAP pathogens with/without antibiotic pretreatment; format: cell-based, Klebsiella pneumoniae
[53] = test system: S. pyogenes; test: as above; format: cell-based, Streptococcus pyogenes; conditions: Abs. 4
[54] = test system: S. pneumoniae; test: MIC of invasive strains, Saint George Hospital 2001–2004; format: cell-based, Streptococcus pneumoniae
[55] = test system: beta-haemolytic streptococcal isolates; test: Disk diffusion; format: cell-based, beta-haemolytic streptococci; conditions: 228 isolates
[56] = test system: Enterococcus sp; test: Sensitivity of CAP pathogens with/without antibiotic pretreatment; format: cell-based
[57] = test system: P. aeruginosa; test: as above; format: cell-based, Pseudomonas aeruginosa; conditions: Abs. 3
[58] = test system: S. aureus; test: as above; format: cell-based, Staphylococcus aureus
[59] = test system: H. influenzae; test: as above; format: cell-based, Haemophilus influenzae
[60] = NCCLS breakpoints (Amox/Clav 2/1 mcg/mL)

Structure (SMILES): CNC(C)C1CCC(N)C(OC2C(N)CC(N)C(OC3OCC(C)(O)C(NC)C3O)C2O)O1 (stereo not drawn) [gentamicin]
- resistance [1]: 86.7%
- Susceptible isolates ([2]; ICU): 99%
- Susceptible isolates ([2]; non ICU): 100%
- significant biofilm killing [3]: not achieved
- Susceptible isolates ([4]; ICU): 100/100%
- Susceptible isolates ([4]; non ICU): 100/100%
- intermediatly resistant [5]: 34%
- sensitive [5]: 54%
- resistance rate (NCCLS M100-S13) [6]: 4%
- resistance rate (NCCLS M100-S13) [7]: 1%
- susceptibility category [8]: resistant
- resistance rate of SCV isolates [9]: 46.2%
- resistant isolates [10]: 3.7%
- resistant isolates [11]: 100.0%
- resistance rate (NCCLS M100-S13) [12]: 0%
- Susceptible isolates ([13]; ICU, SRGA breakpoints, tigecycline tentative S ≤2 μg/ml): 98/98%
- Susceptible isolates ([13]; non ICU): 98/98%
- resistant isolates [14]: 1.6%
- resistant isolates [15]: 17.9%
- high-level resistance ([16]; 107 strains): 0.9%
- susceptible ([17]; NAL-resistant isolates): 68.9%
- susceptible ([17]; NAL-susceptible isolates): 91.2%
- resistant isolates [18]: 12%
- resistance ([19]; Belgian collection (caecal samples; Belgium, France, Netherlands)): ≤ 1%
- resistance ([19]; Germany (carcass meat)): ≤ 1%
- resistance [20]: 66.7%
- resistance rate [21]: 87,7%
- resistance amongst MRSA isolates [22]; 1999: 58.4%
- resistance amongst MRSA isolates [22]; 2003: 13.1%
- resistance [23]: 82.7%
- resistant isolates [24]: 45.4%

Structure (SMILES): CC[C@H]1OC(=O)[C@H](C)C(=O)[C@H](C)[C@@H](O[C@@H]2O[C@H](C)C[C@H](N(C)C)[C@H]2O)[C@](C)(OC)C[C@@H](C)C(=O)[C@H](C)[C@H]2N(CCCCn3cnc(-c4cccnc4)c3)C(=O)O[C@]12C [telithromycin]
- MIC90 [25]: 0.008 ig/ml
- MIC90 [26]: 4 ig/ml
- MIC90 [27]: 0.008 ig/ml
- MIC90 [28]: 0.12 ig/ml
- Susceptibility [29]: 92.7%
- MIC50 [16]: 0.007 µg/mL (≈ 0.00862 µM)
- MIC90 [16]: 2 µg/mL (≈ 2.46 µM)
- susceptible ([30]; year 1: 2002): 99.7%
- susceptible ([30]; year 2: 2003): 99.1%

Structure (SMILES): CC[C@H]1OC(=O)[C@H](C)[C@@H](O[C@H]2C[C@@](C)(OC)[C@@H](O)[C@H](C)O2)[C@H](C)[C@@H](O[C@@H]2O[C@H](C)C[C@H](N(C)C)[C@H]2O)[C@](C)(O)C[C@@H](C)C(=O)[C@H](C)[C@@H](O)[C@]1(C)O [erythromycin]
- % of sensitive strains ([31]; after pretreatment, Abs. 48): 22.9%
- % of sensitive strains ([31]; without pretreatment, Abs. 95): 26.3%
- % S [32]; 1998: 85%
- % S [32]; 1999: 88%
- % S [32]; 2000: 91%
- % S [32]; 2001: 90%
- % S [32]; 2002: 94%
- % S [32]; 2003: 91%
- significant biofilm killing [3]: not achieved
- Susceptible isolates [33]: 100%
- resistance (PEN-NS >0.06, TET-R >1, ERY-R >0.5, CIP-R >2 mg/L) ([34]; Ireland 1999–2000, N 66): 27.3%
- resistance (same cut-offs) ([34]; Ireland 2000–2001, N 59): 23.7%
- resistance (same cut-offs) ([34]; Ireland 2001–2002, N 68): 25.0%
- resistance (same cut-offs) ([34]; Ireland 2002–2003, N 89): 12.4%
- resistance (same cut-offs) ([34]; Ireland 2003–2004, N 76): 9.2%
- resistance (same cut-offs) ([34]; UK 1999–2000, N 595): 11.8%
- resistance (same cut-offs) ([34]; UK 2000–2001, N 608): 10.0%
- resistance (same cut-offs) ([34]; UK 2001–2002, N 631): 10.8%
- resistance (same cut-offs) ([34]; UK 2002–2003, N 683): 9.7%
- resistance (same cut-offs) ([34]; UK 2003–2004, N 709): 10.6%
- MIC90 [35]: 8 µg/mL (≈ 10.9 µM)
- resistance rate ([36]; 2001–2002): 49.5%
- resistance rate ([36]; 2003–2004): 58.0%
- % of sensitive strains ([37]; after pretreatment, Abs. 1): 0.0%
- % of sensitive strains ([37]; without pretreatment, Abs. 5): 0.0%
- MIC [38]: > 256 µg/mL
- resistance [39]: 36%
- sensitivity, total strains ([40]; higher severity group (Fine scores >70)): 26,3%
- sensitivity, total strains ([40]; lower severity group (Fine scores <70)): 17.6%
- %Sus [41, 60]: 0.0%
- MIC90 ([41]; Streptococcus pneumoniae): > 32 µg/mL
- % of sensitive strains ([42]; after pretreatment, Abs. 5): 0.0%
- % of sensitive strains ([42]; without pretreatment, Abs. 2): 0.0%
- Susceptible isolates [43]: 94%
- %Sus [44, 60]: 21.5%
- MIC90 ([44]; Streptococcus pneumoniae, PRSP): > 32 µg/mL
- nonsusceptible [45]: 10.8%
- % resistant [46]: 46.2%
- % of sensitive strains ([47]; after pretreatment, Abs. 11): 0.0%
- % of sensitive strains ([47]; without pretreatment, Abs. 21): 00%
- % of sensitive strains ([48]; after pretreatment, Abs. 0): 0.0%
- % of sensitive strains ([48]; without pretreatment, Abs. 1): 0.0%
- % of sensitive strains ([49]; after antibiotic pretreatment, Abs. 3): 100.0%
- % of sensitive strains ([49]; without antibiotic pretreatment, Abs. 13): 100.0%
- % of sensitive strains ([50]; after pretreatment, Abs. 2): 50.0%
- % of sensitive strains ([50]; without pretreatment, Abs. 4): 75.0%
- MIC50 [16]: 0.12 µg/mL (≈ 0.164 µM)
- MIC90 [16]: 256 µg/mL (≈ 349 µM)
- %Sus [51, 60]: 71.2%
- MIC90 ([51]; Streptococcus pneumoniae): > 32 µg/mL
- % of sensitive strains ([52]; after pretreatment, Abs. 5): 0.0%
- % of sensitive strains ([52]; without pretreatment, Abs. 4): 0.0%
- % of sensitive strains ([53]; after pretreatment): 100.0%
- % of sensitive strains ([53]; without pretreatment): 100.0%
- % S [54]: 82%
- %R [54]: 18%
- Susceptible isolates [55]: 98%
- % of sensitive strains ([56]; after pretreatment, Abs. 0): 0.0%
- % of sensitive strains ([56]; without pretreatment, Abs. 1): 0.0%
- % of sensitive strains ([57]; after pretreatment): 0.0%
- % of sensitive strains ([57]; without pretreatment): 0.0%
- % of sensitive strains ([58]; after pretreatment, Abs. 4): 75.0%
- % of sensitive strains ([58]; without pretreatment, Abs. 11): 45.5%
- % of sensitive strains ([59]; after pretreatment, Abs. 10): 0.0%
- % of sensitive strains ([59]; without pretreatment, Abs. 26): 0.0%
